Results reported in ChEMBL document CHEMBL1126805, “Synthesis and evaluation of a series of benzylaniline hydrochlorides as potential cytotoxic and antimitotic agents acting by inhibition of tubulin polymerization” (J Med Chem, 1993).

How the values were obtained:
[1] = system: UACC-62; experiment: Tested for cytotoxicity against UACC-62 cell lines in melanoma; type: functional; conditions: Homo sapiens
[2] = system: K562; experiment: Tested for cytotoxicity against K-562 cell lines in leukemia; type: functional; conditions: Homo sapiens
[3] = system: LXFL 529; experiment: Tested for cytotoxicity against LXFL529 cell lines in non-small-cell lung cancer; type: functional; conditions: Homo sapiens
[4] = system: HOP-62; experiment: Tested for cytotoxicity against HOP-62 cell lines in non-small-cell lung cancer; type: functional; conditions: Homo sapiens
[5] = system: SNB-78; experiment: Tested for cytotoxicity against SNB-78 cell lines in CNS cancer; type: functional; conditions: Homo sapiens
[6] = system: COLO 205; experiment: (§1) Tested for cytotoxicity against COLO 205 cell lines in colon cancer; type: functional; conditions: Homo sapiens
[7] = system: SNB-19; experiment: Tested for cytotoxicity against SNB-19 cell lines in CNS cancer; type: functional; conditions: Homo sapiens
[8] = system: IGROV-1; experiment: Tested for cytotoxicity against IGROV1 cell lines in ovarian cancer; type: functional; conditions: Homo sapiens
[9] = system: UACC-257; experiment: Tested for cytotoxicity against UACC-257 cell lines in melanoma; type: functional; conditions: Homo sapiens
[10] = system: LOX IMVI; experiment: Tested for cytotoxicity against LOX IMVI cell lines in melanoma; type: functional; conditions: Homo sapiens
[11] = system: NCI-H460; experiment: Tested for cytotoxicity against NCI-H460 cell lines in non-small-cell lung cancer; type: functional; conditions: Homo sapiens
[12] = system: HCT-116; experiment: Tested for cytotoxicity against HCT116 cell lines in colon cancer; type: functional; conditions: Homo sapiens
[13] = system: SNB-75; experiment: Tested for cytotoxicity against SNB-75 cell lines in CNS cancer; type: functional; conditions: Homo sapiens
[14] = system: CCRF-CEM; experiment: Tested for cytotoxicity against CCRF-CEM cell lines in leukemia; type: functional; conditions: Homo sapiens
[15] = system: NCI-H522; experiment: (§2) Tested for cytotoxicity against NCI-H522 cell lines in non-small-cell lung cancer; type: functional; conditions: Homo sapiens
[16] = system: SK-OV-3; experiment: Tested for cytotoxicity against SK-OV-3 cell lines in ovarian cancer; type: functional; conditions: Homo sapiens
[17] = system: OVCAR-8; experiment: Tested for cytotoxicity against OVCAR-8 cell lines in ovarian cancer; type: functional; conditions: Homo sapiens
[18] = system: HOP-18; experiment: Tested for cytotoxicity against HOP-18 cell lines in non-small-cell lung cancer; type: functional; conditions: Homo sapiens
[19] = system: OVCAR-4; experiment: Tested for cytotoxicity against OVCAR-4 cell lines in ovarian cancer; type: functional; conditions: Homo sapiens
[20] = system: MOLT-4; experiment: Tested for cytotoxicity against MOLT-4 cell lines in leukemia; type: functional; conditions: Homo sapiens
[21] = system: M14; experiment: (§3) Tested for cytotoxicity against M14 cell lines in melanoma; type: functional; conditions: Homo sapiens
[22] = system: SF-295; experiment: (§4) Tested for cytotoxicity against SF-295 cell lines in CNS cancer; type: functional; conditions: Homo sapiens
[23] = system: RPMI-8226; experiment: Tested for cytotoxicity against RPMI-8226 cell lines in leukemia; type: functional; conditions: Homo sapiens
[24] = system: ACHN; experiment: Tested for cytotoxicity against ACHN cell lines in renal cancer; type: functional; conditions: Homo sapiens
[25] = system: RXF 393; experiment: Tested for cytotoxicity against RXF-393 cell lines in renal cancer; type: functional; conditions: Homo sapiens
[26] = system: HL-60; experiment: Tested for cytotoxicity against HL-60 (TB) cell lines in leukemia; type: functional; conditions: Homo sapiens
[27] = system: UO-31; experiment: Tested for cytotoxicity against UO-31 cell lines in renal cancer; type: functional; conditions: Homo sapiens
[28] = system: A498; experiment: Tested for cytotoxicity against A498 cell lines in renal cancer; type: functional; conditions: Homo sapiens
[29] = system: KM12; experiment: Tested for cytotoxicity against KM12 cell lines in colon cancer; type: functional; conditions: Homo sapiens
[30] = system: SW-620; experiment: Tested for cytotoxicity against SW-620 cell lines in colon cancer; type: functional; conditions: Homo sapiens
[31] = system: A549; experiment: Tested for cytotoxicity against A549/ATCC cell lines in non-small-cell lung cancer; type: functional; conditions: Homo sapiens
[32] = system: DMS-273; experiment: Tested for cytotoxicity against DMS273 cell lines in small-cell lung cancer; type: functional; conditions: Homo sapiens
[33] = system: TK-10; experiment: Tested for cytotoxicity against TK-10 cell lines in renal cancer; type: functional; conditions: Homo sapiens
[34] = system: SK-MEL-2; experiment: Tested for cytotoxicity against SK-MEL-2 cell lines in melanoma; type: functional; conditions: Homo sapiens
[35] = system: SK-MEL-5; experiment: Tested for cytotoxicity against SK-MEL-5 cell lines in melanoma; type: functional; conditions: Homo sapiens
[36] = system: SF-268; experiment: Tested for cytotoxicity against SF-268 cell lines in CNS cancer; type: functional; conditions: Homo sapiens
[37] = system: 786-0; experiment: Tested for cytotoxicity against 786-0 cell lines in renal cancer; type: functional; conditions: Homo sapiens
[38] = system: DMS-114; experiment: Tested for cytotoxicity against DMS114 cell lines in small-cell lung cancer; type: functional; conditions: Homo sapiens
[39] = system: HL-60; experiment: Tested for cytotoxicity against human cancer cell lines HL-60(TB) (leukemia) cell line.; type: functional
[40] = system: HCT-15; experiment: Tested for cytotoxicity against HCT-15 cell lines in colon cancer; type: functional; conditions: Homo sapiens
[41] = system: KM-20L2; experiment: Tested for cytotoxicity against KM20L2 cell lines in colon cancer; type: functional; conditions: Homo sapiens
[42] = system: OVCAR-5; experiment: Tested for cytotoxicity against OVCAR-5 cell lines in ovarian cancer; type: functional; conditions: Homo sapiens
[43] = system: M14; experiment: as §3; type: functional; conditions: Homo sapiens; remark: listed apart in the source
[44] = system: NCI-H522; experiment: as §2; type: functional; conditions: Homo sapiens; remark: listed apart in the source
[45] = system: COLO 205; experiment: as §1; type: functional; conditions: Homo sapiens; remark: listed apart in the source
[46] = system: NCI-H322M; experiment: Tested for cytotoxicity against NCI-H322M cell lines in non-small-cell lung cancer; type: functional; conditions: Homo sapiens
[47] = system: HT-29; experiment: Tested for cytotoxicity against HT-29 cell lines in colon cancer; type: functional; conditions: Homo sapiens
[48] = system: XF498; experiment: Tested for cytotoxicity against XF 498 cell lines in CNS cancer; type: functional; conditions: Homo sapiens
[49] = system: SF-539; experiment: Tested for cytotoxicity against SF-539 cell lines in CNS cancer; type: functional; conditions: Homo sapiens
[50] = system: HOP-92; experiment: Tested for cytotoxicity against HOP-92 cell lines in non-small-cell lung cancer; type: functional; conditions: Homo sapiens
[51] = system: DMS-273; experiment: Tested for cytotoxicity against DMS 273 cell lines in small-cell lung cancer; type: functional; conditions: Homo sapiens
[52] = system: CAKI-1; experiment: (§5) Tested for cytotoxicity against CAKI-1 cell lines in renal cancer; type: functional; conditions: Homo sapiens
[53] = system: M19-MEL; experiment: Tested for cytotoxicity against M19-MEL cell lines in melanoma; type: functional; conditions: Homo sapiens
[54] = system: NCI-H23; experiment: Tested for cytotoxicity against NCI-H23 cell lines in non-small-cell lung cancer; type: functional; conditions: Homo sapiens
[55] = system: EKVX; experiment: Tested for cytotoxicity against […] cell lines in non-small-cell lung cancer; type: functional; conditions: Homo sapiens
[56] = system: SN12C; experiment: Tested for cytotoxicity against SN12C cell lines in renal cancer; type: functional; conditions: Homo sapiens
[57] = biological target: Tubulin (Bos taurus, UniProt Q6B856+Q862F3); experiment: In vitro inhibition of bovine electrophoretically homogeneous tubulin polymerization.; type: functional
Chain of Tubulin (Q6B856 whole entry): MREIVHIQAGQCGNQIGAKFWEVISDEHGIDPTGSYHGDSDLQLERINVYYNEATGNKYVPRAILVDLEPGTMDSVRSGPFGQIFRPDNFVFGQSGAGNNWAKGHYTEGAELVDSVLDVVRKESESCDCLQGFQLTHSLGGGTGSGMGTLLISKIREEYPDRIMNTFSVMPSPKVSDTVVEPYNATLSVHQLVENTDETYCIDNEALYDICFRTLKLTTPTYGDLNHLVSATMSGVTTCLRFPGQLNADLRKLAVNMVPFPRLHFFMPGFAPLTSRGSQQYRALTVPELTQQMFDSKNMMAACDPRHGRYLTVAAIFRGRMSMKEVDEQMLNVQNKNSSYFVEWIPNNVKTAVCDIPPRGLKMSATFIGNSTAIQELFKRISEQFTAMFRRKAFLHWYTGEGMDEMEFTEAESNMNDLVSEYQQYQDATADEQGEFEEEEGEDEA
Chain of Tubulin (Q862F3 whole entry): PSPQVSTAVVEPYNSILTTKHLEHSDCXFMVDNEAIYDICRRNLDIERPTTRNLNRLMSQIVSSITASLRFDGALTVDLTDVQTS

[58] = system: CAKI-1; experiment: as §5; type: functional; conditions: Homo sapiens; remark: listed apart in the source
[59] = system: SF-295; experiment: as §4; type: functional; conditions: Homo sapiens; remark: listed apart in the source
[60] = system: Malme-3M; experiment: Tested for cytotoxicity against MALME-3M cell lines in melanoma; type: functional; conditions: Homo sapiens
[61] = system: OVCAR-3; experiment: Tested for cytotoxicity against OVCAR-3 cell lines in ovarian cancer; type: functional; conditions: Homo sapiens
[62] = system: DLD-1; experiment: Tested for cytotoxicity against DLD-1 cell lines in colon cancer; type: functional; conditions: Homo sapiens
[63] = system: U-251; experiment: Tested for cytotoxicity against U251 cell lines in CNS cancer; type: functional; conditions: Homo sapiens
[64] = system: COLO 205; experiment: Tested for cytotoxicity against COLO 205 (colon cancer) cell line.; type: functional, Homo sapiens
[65] = system: OVCAR-3; experiment: Tested for cytotoxicity against OVCAR-3 (ovarian cancer) cell line.; type: functional, Homo sapiens
[66] = system: SF-295; experiment: In vitro cytotoxicity against SF-295 (CNS cancer) cell line.; type: functional, Homo sapiens
[67] = system: CAKI-1; experiment: Tested for cytotoxicity against CAKI-1 renal cancer; type: functional, Homo sapiens
[68] = system: M14; experiment: Tested for cytotoxicity against M14 melanoma; type: functional, Homo sapiens; conditions: Homo sapiens, M14
[69] = system: NCI-H522; experiment: Tested for cytotoxicity against NCI-H522 (non-small-cell lung cancer) cell line.; type: functional, Homo sapiens
[70] = system: DMS-273; experiment: Tested for cytotoxicity against DMS 273 (small-cell lung cancer) cell line.; type: functional, Homo sapiens

COc1cc(CNc2ccc(C)cc2)cc(OC)c1OC
GI50 [1]: 0.575 µM | GI50 [2]: 0.1 µM | GI50 [3]: 0.631 µM | GI50 [4]: 0.282 µM | GI50 [5]: 1.1 µM | GI50 [6]: 0.219 µM | GI50 [7]: 0.295 µM | GI50 [8]: 0.708 µM | GI50 [9]: > 100 µM | GI50 [10]: 0.851 µM | GI50 [11]: 0.214 µM | GI50 [12]: 0.575 µM | GI50 [13]: 0.389 µM | GI50 [14]: 0.282 µM | GI50 [15]: 0.204 µM | GI50 [16]: 0.269 µM | GI50 [17]: 0.759 µM | GI50 [18]: 37.2 µM | GI50 [19]: 21.4 µM | GI50 [20]: 0.427 µM | GI50 [21]: 0.292 µM | GI50 [22]: 0.233 µM | GI50 [23]: 0.437 µM | GI50 [24]: 0.0977 µM | GI50 [25]: 0.112 µM | GI50 [26]: 0.0891 µM | GI50 [27]: 0.832 µM | GI50 [28]: > 100 µM | GI50 [29]: 0.759 µM | GI50 [30]: 0.11 µM | GI50 [31]: 0.513 µM | GI50 [32]: 0.0933 µM | GI50 [33]: > 100 µM | GI50 [34]: 0.132 µM | GI50 [35]: 0.912 µM | GI50 [36]: 0.912 µM | GI50 [37]: 0.324 µM | GI50 [38]: 0.427 µM | GI50 [39]: 0.722 µM | GI50 [40]: 0.245 µM | GI50 [41]: 0.251 µM | GI50 [42]: 1.35 µM | GI50 [43]: < 0.01 µM | GI50 [44]: 0.262 µM | GI50 [45]: 0.214 µM | GI50 [46]: 0.501 µM | GI50 [47]: 0.347 µM | GI50 [48]: 0.468 µM | GI50 [49]: 0.316 µM | GI50 [50]: 18.6 µM | GI50 [51]: 0.104 µM | GI50 [52]: 0.162 µM | GI50 [53]: 0.331 µM | GI50 [54]: 0.407 µM | GI50 [55]: 0.741 µM | GI50 [56]: 0.851 µM | IC50 [57]: 3.5 µM | GI50 [58]: 0.0132 µM | GI50 [59]: 0.324 µM | GI50 [60]: 0.468 µM | GI50 [61]: 0.214 µM | GI50 [62]: 0.575 µM | GI50 [63]: 0.331 µM

CCCc1ccc(/N=C/c2cc(OC)c(OC)c(OC)c2)cc1
GI50 ([64]; Homo sapiens, COLO 205): > 100 µM | GI50 ([65]; Homo sapiens, OVCAR-3): > 100 µM | GI50 ([39]; Homo sapiens, HL-60): 22.6 µM | GI50 ([66]; Homo sapiens, SF-295): > 100 µM | GI50 ([67]; Homo sapiens, CAKI-1): > 100 µM | GI50 [68]: > 100 µM | GI50 ([69]; Homo sapiens, NCI-H522): > 100 µM | GI50 ([70]; Homo sapiens, DMS-273): > 100 µM | IC50 [57]: > 40 µM

COc1ccc(/C=C\c2cc(OC)c(OC)c(OC)c2)cc1
IC50 [57]: 2 µM

CCOc1ccc(/N=C/c2cc(OC)c(OC)c(OC)c2)cc1
GI50 ([65]; Homo sapiens, OVCAR-3): > 100 µM | GI50 ([39]; Homo sapiens, HL-60): > 100 µM | GI50 ([66]; Homo sapiens, SF-295): > 100 µM | GI50 ([67]; Homo sapiens, CAKI-1): > 100 µM | GI50 [68]: > 100 µM | GI50 ([69]; Homo sapiens, NCI-H522): > 100 µM | GI50 ([70]; Homo sapiens, DMS-273): > 100 µM | IC50 [57]: > 40 µM

COc1ccc(NCc2cc(OC)c(OC)c(OC)c2)cc1
GI50 [64]: 1.66 µM | GI50 [65]: 1.96 µM | GI50 [39]: 0.834 µM | GI50 [66]: 2.32 µM | GI50 [67]: 2.5 µM | GI50 [68]: 2.38 µM | GI50 [69]: 2.76 µM | GI50 [70]: 0.534 µM | IC50 [57]: 8.9 µM
